Source: patent US11109593B2, “Isoxazolin-5-one derivative and herbicide containing same as active ingredient” (HOKKO CHEMICAL INDUSTRY CO., LTD., priority 2017, dated 2021)

Experiments:
Type in all cases: in vivo
[1] = tested on: Scirpus juncoides; test: Test Example 2: herbicidal effect test by treatment during growing period in paddy rice cultivation (seven days after seeding); conditions: for Herbicidal rate (%) Scirpus juncoides: 120 g/10a active ingredient, assessed 14 days after treatment, dry weight vs untreated area
Method: (§1) This test was conducted in a double system per one agent solution concentration area, and the herbicidal rates (%) were determined by the following equation (Math. 1) on 14 days after the treatment with the agents. Herbicidal Rate (%)={1-(Average Dry Weight (g) of Plant of Treated Area)/(Average Dry Weight (g) of Plant of Untreated Area)}×100 [Math. 1]
(§2) Herbicidal Effect Test by Treatment During Growing Period in Paddy Rice Cultivation
(§3) Wagner pots with an area of 1/10000 ares were filled with a paddy soil, and after adding water, a compound fertilizer (N:P:K=17:17:17) was mixed, followed by soil puddling. Then, Echinochloa crus-galli, broad leaf weeds (Lindernia pyxidaria and Monochoria vaginalis) and Scirpus juncoides, 30 seeds each, were sown in a depth of 0 to 1 cm. Water was poured immediately after seeding, and the water depth was kept at about 3 cm. The subsequent management was conducted in a glass greenhouse. Emulsions prepared using the compounds in Table 4 below according to Formulation Example 5 were diluted with water seven days after seeding, and a certain amount of the water-diluted agent solutions were dropped. The converted amount of the applied active ingredient corresponded to 120 g per 10 ares. The test was conducted in a double system per one agent solution concentration area, and the herbicidal rates (%) were determined by the equation (Math. 1) on 14 days after the treatment with the agents. […] The compound numbers in Table 4 are the same as those in Table 1 and Table 2 above.

[2] = tested on: Echinochloa crus-galli; test: as above; conditions: for Herbicidal rate (%) Echinochloa crus-galli: 120 g/10a active ingredient, assessed 14 days after treatment, dry weight vs untreated area
Method: as §1, §2, §3

[3] = tested on: broad leaf weeds (Lindernia pyxidaria and Monochoria vaginalis); test: as above; conditions: for Herbicidal rate (%) Lindernia pyxidaria / Herbicidal rate (%) Monochoria vaginalis: 120 g/10a active ingredient, assessed 14 days after treatment, dry weight vs untreated area
Method: as §1, §2, §3

[4] = tested on: Scirpus juncoides; test: Test Example 1: herbicidal effect test by treatment of rice paddy soil (immediately after seeding)
Method: (§4) Herbicidal Effect Test by Treatment of Rice Paddy Soil
(§5) Wagner pots with an area of 1/10000 ares were filled with a paddy soil, and after adding water, a compound fertilizer (N:P:K=17:17:17) was added, followed by soil puddling. Then, Echinochloa crus-galli, broad leaf weeds (Lindernia pyxidaria and Monochoria vaginalis) and Scirpus juncoides, 30 seeds each, were sown in a depth of 0 to 1 cm. Water was poured immediately after seeding, and the water depth was kept at about 3 cm. The subsequent management was conducted in a glass greenhouse. Immediately after that, emulsions prepared using the compounds in Table 3 below according to Formulation Example 5 were diluted with water, and a certain amount of the water-diluted agent solutions were dropped. The converted amount of the applied active ingredient corresponded to 120 g per 10 ares.
as §1
(§6) The compound numbers in Table 3 are the same as those in Table 1 and Table 2 above.

[5] = tested on: Echinochloa crus-galli; test: as above
Method: as §4, §5, §1, §6

[6] = tested on: broad leaf weeds (Lindernia pyxidaria and Monochoria vaginalis); test: as above
Method: as §4, §5, §1, §6

[7] = 120 g/10a active ingredient, dry weight vs untreated area, 14 days after treatment
[8] = Lindernia pyxidaria, 120 g/10a active ingredient, dry weight vs untreated area, 14 days after treatment
[9] = Monochoria vaginalis, 120 g/10a active ingredient, dry weight vs untreated area, 14 days after treatment
[10] = 120 g/10a, rated 14 days after treatment, paddy soil pots
[11] = 120 g/10a active ingredient, 14 days after treatment, dry weight vs untreated area

Row | SMILES | Herbicidal rate (%) Scirpus juncoides [1] [%] | Herbicidal rate (%) Echinochloa crus-galli [2] [%] | Herbicidal rate (%) Lindernia pyxidaria ([3]; Lindernia pyxidaria) [%] | Herbicidal rate (%) Monochoria vaginalis ([3]; Monochoria vaginalis) [%] | Herbicidal rate (%) Scirpus juncoides [4, 7] [%] | Herbicidal rate (%) Echinochloa crus-galli [5, 7] [%] | Herbicidal rate (%) Lindernia pyxidaria [6, 8] [%] | Herbicidal rate (%) Monochoria vaginalis [6, 9] [%] | herbicidal rate, Scirpus juncoides [1, 10] [%] | herbicidal rate, Echinochloa crus-galli [2, 10] [%] | herbicidal rate, Lindernia pyxidaria ([3]; Lindernia pyxidaria, 120 g/10a, rated 14 days after treatment, paddy soil pots) [%] | herbicidal rate, Monochoria vaginalis ([3]; Monochoria vaginalis, 120 g/10a, rated 14 days after treatment, paddy soil pots) [%] | Herbicidal rate (%) Scirpus juncoides [4, 11] [%] | Herbicidal rate (%) Echinochloa crus-galli [5, 11] [%] | Herbicidal rate (%) Lindernia pyxidaria ([6]; Lindernia pyxidaria, 120 g/10a active ingredient, 14 days after treatment, dry weight vs untreated area) [%] | Herbicidal rate (%) Monochoria vaginalis ([6]; Monochoria vaginalis, 120 g/10a active ingredient, 14 days after treatment, dry weight vs untreated area) [%]
1 | Cc1c(Cc2ccccc2N(C(=O)OCC(C)C)S(=O)(=O)C(F)(F)F)c(=O)on1Cc1ccccc1 [Compound 1-677] | 90 | 70 | 80 | 80 | 90 | 90 | 100 | 100 | – | – | – | – | – | – | – | –
2 | Cc1c(Cc2ccccc2NS(=O)(=O)C(F)(F)F)c(=O)on1Cc1ccc(SC(F)(F)F)cc1 [Compound 1-198] | 40 | 40 | 90 | 90 | 80 | 80 | 100 | 100 | – | – | – | – | – | – | – | –
3 | Cc1c(Cc2ccccc2N(S(=O)(=O)C(F)(F)F)S(=O)(=O)C(F)(F)F)c(=O)on1Cc1ccsc1 [Compound 1-1055] | – | – | – | – | – | – | – | – | 80 | 80 | 40 | 60 | 90 | 60 | 100 | 100
4 | Cc1c(Cc2ccccc2N(S(=O)(=O)C(F)(F)F)S(=O)(=O)C(F)(F)F)c(=O)on1C(C)c1ccc(OC(F)(F)F)cc1 (stereo not shown) [Compound 1-1036] | 60 | 40 | 60 | 60 | 70 | 70 | 60 | 60 | – | – | – | – | – | – | – | –
5 | Cc1c(Cc2ccccc2N(S(=O)(=O)C(F)(F)F)S(=O)(=O)C(F)(F)F)c(=O)on1C(C)c1ccc(F)cc1 (stereo not shown) [Compound 1-1031] | 100 | 90 | 100 | 100 | 100 | 100 | 100 | 100 | – | – | – | – | – | – | – | –
6 | Cc1c(Cc2ccccc2NS(=O)(=O)C(F)(F)F)c(=O)on1C(C)c1ccc(F)cc1 (stereo not shown) [Compound 1-204] | 80 | 80 | 80 | 80 | 90 | 100 | 90 | 90 | – | – | – | – | – | – | – | –
7 | Cc1c(Cc2c(Cl)cccc2NS(=O)(=O)C(F)(F)F)c(=O)on1C(C)C [Compound 1-46] | 60 | 40 | 40 | 40 | 90 | 60 | 80 | 80 | – | – | – | – | – | – | – | –
8 | Cc1c(Cc2ccccc2NS(=O)(=O)C(F)(F)F)c(=O)on1Cc1ccc(Cl)cc1 [Compound 1-186] | 80 | 50 | 80 | 80 | 90 | 90 | 100 | 100 | – | – | – | – | – | – | – | –
